Several values for one entry are separate records, joined by “and”; a condition that tells them apart may be missing. Equal values may be shown once. Read-outs that look alike come from different tables or passages of the source.
Target: T1, human carbonic anhydrase II (Homo sapiens, UniProt P00918)
T1 construct: purchased Sigma C-6165
Test: Carbonic anhydrase II inhibition assay (p-nitrophenol acetate, absorbance at 405 nm)
Assay type: biochemical
Experimental: Final concentrations of each inhibitor ranged from 1 picomolar to 1 micromolar. Control samples that included either no inhibitor or no enzyme were also performed.
The admixture of substrate and enzyme initiates the enzyme reaction. […] The inhibition at each inhibitor concentration was measured in triplicate. The IC50 value was then derived using the GraphPad Prism curve fitting software. […] The compound number listed in Table 2 and 3 corresponds with the same compound number detailed in Table 1.

[1] = Table 2, single values of the N determinations, read-out: CA Assay IC50 (μM), individual determinations in parentheses
[2] = read-out: IC50 for inhibition of CA II activity
[3] = Table 2, overall value of N determinations, read-out: CA Assay IC50 (μM) and concentration of inhibitor added
[4] = Table 3, mean, read-out: Mean IC50

Row | IC50 [4] | SMILES | also measured
1 |  | Cc1ccc(-c2cc(C(F)(F)F)n(-c3ccc(S(N)(=O)=O)cc3)n2)cc1 [Compound 1] | IC50 [1]: 0.015 µM and 0.021 µM and 0.004 µM; IC50 [2]: 0.01 µM
2 |  | CCCCOc1ccc(-c2cc(C(F)(F)F)nn2-c2ccc(S(N)(=O)=O)cc2)cc1 [Compound 2] | IC50 [3]: 0.04 µM; IC50 [1]: 0.03 µM and 0.04 µM
3 |  | NS(=O)(=O)c1ccc(-n2nc(-c3ccccc3)cc2-c2ccccc2)cc1 [Compound 3] | IC50 [3]: 0.04 µM
4 |  | CC(=O)SCc1cc(-c2ccc(Cl)cc2)n(-c2ccc(S(N)(=O)=O)cc2)n1 [Compound 4] | IC50 [3]: 0.09 µM
5 |  | C=C1N[C@@H]2[C@@H](CS[C@@H]2CCCCC(=O)NCCOCCOCCNC(=O)CSCc2cc(-c3ccc(Cl)cc3)n(-c3ccc(S(N)(=O)=O)cc3)n2)N1 [Compound 6] | IC50 [3]: 0.18 µM
6 | 0.195 µM | NC(=O)c1nn(-c2ccc(S(N)(=O)=O)cc2)c2c1CCc1cnccc1-2 [Compound 8] | 
7 | 0.0334 µM | COC(=O)C1c2ccccc2-c2c1cnn2-c1ccc(S(N)(=O)=O)cc1 (stereo not shown) [Compound 9] | 
8 | 0.465 µM | NC(=O)c1nn(-c2ccc(S(N)(=O)=O)cc2)c2c1C[S+]([O-])c1ccccc1-2 (stereo not shown) [Compound 12] | 
9 | 0.07 µM | CC1CCc2c(c(C(=O)O)nn2-c2ccc(S(N)(=O)=O)cc2)C1 (stereo not shown) [Compound 13] | 
10 | 0.101 µM | NC(=O)c1nn(-c2ccc(S(N)(=O)=O)cc2)c2c1CNc1ccccc1-2 [Compound 14] | 
11 | 0.0056 µM | CCOC(=O)c1nn(-c2ccc(S(N)(=O)=O)cc2)c2c1CCC=C2 [Compound 15] | 
12 | 0.0338 µM | CS(=O)(=O)Nc1cccc(-c2cc(C(N)=O)nn2-c2ccc(S(N)(=O)=O)cc2)c1 [Compound 16] | 
13 | 0.181 µM | CN(C)/C=N/c1cccc(-c2cc(C(N)=O)nn2-c2ccc(S(N)(=O)=O)cc2)c1 [Compound 17] | 
14 | 0.251 µM | NS(=O)(=O)c1ccc(-n2ncc3c2-c2ccncc2CC3)cc1 [Compound 18] | 
15 | 0.0777 µM | CNC(=O)c1nn(-c2ccc(S(N)(=O)=O)cc2)c2c1CCc1[nH]ncc1-2 [Compound 19] | 
16 | 0.435 µM | COCC(=O)Nc1ccc2c(c1)-c1c(c(C(N)=O)nn1-c1ccc(S(N)(=O)=O)cc1)CC2 [Compound 20] | 
17 | 1.22 µM | NC(=O)c1nn(-c2ccc(S(N)(=O)=O)cc2)c2c1CCc1cn(CCO)nc1-2 [Compound 21] | 
18 | 1.24 µM | NS(=O)(=O)c1ccc(-n2nc(C(=O)O)c3c2-c2cn[nH]c2CC3)cc1 [Compound 22] | 
19 | 0.202 µM | CCOc1cccc2c(C(N)=O)nn(-c3ccc(S(N)(=O)=O)cc3)c12 [Compound 23] | 
20 | 0.06 µM | NC(=O)c1nn(-c2ccc(S(N)(=O)=O)cc2)c2c1CCc1cnc(N)nc1-2 [Compound 24] | 
21 | 2.91 µM | C#CCN(CC#C)S(=O)(=O)c1ccc(-n2nc(C(N)=O)c3c2-c2nc(N)ncc2CC3)cc1 [Compound 25] | 
22 | 0.0794 µM | NC(=O)c1cc(-c2ccco2)n(-c2ccc(S(N)(=O)=O)cc2)n1 [Compound 26] | 
23 | 0.418 µM | NC(=O)c1cc(-c2ccncc2)n(-c2ccc(S(N)(=O)=O)cc2)n1 [Compound 27] | 
24 | 0.523 µM | NC(=O)c1cc(-c2cccnc2)n(-c2ccc(S(N)(=O)=O)cc2)n1 [Compound 28] | 
25 | 0.127 µM | NC(=O)c1cc(-c2ccccn2)n(-c2ccc(S(N)(=O)=O)cc2)n1 [Compound 29] | 
26 | 0.0219 µM | NC(=O)c1nn(-c2ccc(S(N)(=O)=O)cc2)c2c1CCC=C2 [Compound 30] | 
27 | 0.239 µM | COC(=O)c1cc(-c2ccc(OC)cc2)n(-c2ccc(S(N)(=O)=O)cc2)n1 [Compound 31] | 
28 | 0.182 µM | COC(=O)c1cc(-c2ccccc2)n(-c2ccc(S(N)(=O)=O)cc2)n1 [Compound 32] | 

Row | IC50 [4] | SMILES | also measured
29 | 0.0386 µM | NS(=O)(=O)c1ccc(-n2nc(C(F)(F)F)cc2-c2cccnc2)cc1 [Compound 33] | 
30 | 0.0184 µM | COC(C)Cc1cc(C(F)F)nn1-c1ccc(S(N)(=O)=O)cc1 (stereo not shown) [Compound 34] | 
31 | 0.018 µM | C/C=C/c1cc(C(F)F)nn1-c1ccc(S(N)(=O)=O)cc1 [Compound 35] | 
32 | 0.0463 µM | COC(C)(C)Cc1cc(C(F)F)nn1-c1ccc(S(N)(=O)=O)cc1 [Compound 36] | 
33 | 0.599 µM | NS(=O)(=O)c1ccc(-n2nc(C(=O)O)cc2-c2ccccc2)cc1 [Compound 37] | 
34 | 0.21 µM | NC(=O)c1cc(-c2ccccc2)n(-c2ccc(S(N)(=O)=O)cc2)n1 [Compound 38] | 
35 | 0.258 µM | COc1ccc(-c2cc(C(N)=O)nn2-c2ccc(S(N)(=O)=O)cc2)cc1 [Compound 39] | 
36 | 0.334 µM | CNC(=O)c1cc(-c2ccc(OC)cc2)n(-c2ccc(S(N)(=O)=O)cc2)n1 [Compound 41] | 
37 | 4.9 µM | COc1ccc(-c2cc(C(=O)O)nn2-c2ccc(S(N)(=O)=O)cc2)cc1 [Compound 42] | 
38 | 0.203 µM | COc1ccc(-c2ccnn2-c2ccc(S(N)(=O)=O)cc2)cc1 [Compound 43] | 
39 | 0.08 µM | NS(=O)(=O)c1ccc(-n2nc(C(=O)NCC(=O)O)cc2-c2ccc(Cl)cc2)cc1 [Compound 44] | 
40 | 0.0431 µM | NS(=O)(=O)c1ccc(-n2nc(C(F)(F)F)c3c2-c2ccccc2[S+]([O-])C3)cc1 (stereo not shown) [Compound 45] | 
41 | 0.06 µM | COc1ccc2c(c1F)C[S+]([O-])c1c(C(F)(F)F)nn(-c3ccc(S(N)(=O)=O)cc3)c1-2 (stereo not shown) [Compound 46] | 
42 | 0.0671 µM | NS(=O)(=O)c1ccc(-n2nc(CO)cc2-c2ccc(O)cc2)cc1 [Compound 47] | 
43 | 0.0812 µM | NS(=O)(=O)c1ccc(-n2nc(C(F)(F)F)cc2O)cc1 [Compound 48] | 
44 | 0.0087 µM | COc1cc(C(F)(F)F)nn1-c1ccc(S(N)(=O)=O)cc1 [Compound 49] | 
45 | 0.0171 µM | CC(C)Oc1cc(C(F)(F)F)nn1-c1ccc(S(N)(=O)=O)cc1 [Compound 50] | 
46 | 0.0356 µM | NC(=O)c1nn(-c2ccc(S(N)(=O)=O)cc2)c2c1CSCC2 [Compound 51] | 
47 | 0.0105 µM | NS(=O)(=O)c1ccc(-n2nc(C(F)(F)F)cc2C(=O)C(=O)c2ccccc2)cc1 [Compound 53] | 
48 | 0.109 µM | NS(=O)(=O)c1ccc(-n2ncc(C(F)(F)F)c2-c2ccccc2)cc1 [Compound 56] | 
49 | 0.139 µM | NS(=O)(=O)c1ccc(-n2nc(C(F)(F)F)cc2C2CCNCC2)cc1 [Compound 57] | 
50 | 0.389 µM | CNC(=O)c1nn(-c2ccc(S(N)(=O)=O)cc2)cc1-c1ccccc1 [Compound 58] | 
51 | 0.0035 µM | Cc1ccc(-c2cc(C(F)(F)F)n(-c3ccc(S(N)(=O)=O)cc3)n2)cc1 [Compound 63] | 
52 | 0.0812 µM | NS(=O)(=O)c1ccc(-n2nc(C(F)(F)F)cc2O)cc1 [Compound 65] | 
53 |  | CS(=O)(=O)c1ccc(-n2nccc2-c2ccc(F)cc2)cc1 [IX, reference compound] | IC50 [3]: > 100 µM
54 |  | CS(=O)(=O)c1ccc(C2=C(c3ccccc3)C(=O)OC2)cc1 [VIII, Rofecoxib, reference compound] | IC50 [3]: > 100 µM; IC50 [2]: > 100 µM
55 |  | O=C(c1ccc(-n2nc(C(F)(F)F)cc2-c2ccc(F)cc2)cc1)C(F)(F)F [X, reference compound] | IC50 [3]: > 100 µM

— US20030220376A1, “Methods for treating carbonic anhydrase mediated disorders” (Pharmacia Corporation, priority 2001, published 2003)
